Laboratory results reported in patent US20220331303A1, “USE OF AN OREXIN 2 RECEPTOR AGONIST FOR THE TREATMENT OF EXCESSIVE SLEEPINESS” (Takeda Pharmaceutical Company Limited, priority 2019, published 2022).

Tested on: sleep-deprived healthy volunteers
Assay: Karolinska Sleepiness Scale (KSS) in sleep-deprived healthy volunteers
Type: in vivo, human
Details: for KSS Sleepy/Alert LS Mean / KSS Sleepy/Alert LS Mean Difference vs Placebo Estimate: M: Modafinil 300 mg
Protocol: During the day before dosing on Day 1, participants were administered the KSS at scheduled timepoints. A practice MWT session was performed on Day 1 treatment period 1 (only once during the entire study) to familiarize subjects with the procedures. Study drug was administered in the clinic in the evening on Day 1 of each treatment period. Subjects underwent the MWT and KSS at specified timepoints after the start of the infusion. Subjects were required to stay awake between the MWT tests. Following completion of the IV infusion on Day 2, subjects underwent an additional MWT test. When the final MWT test and cognitive testing were completed, subjects were allowed to sleep (recovery sleep) for approximately 6 hours. PSG recording was collected during this time. Subjects were discharged from the unit after completion on Day 2 with continuing actigraphy upon discharge (to begin on Day −6 before the next treatment period). The interval between each subsequent treatment period was at least 7 days to ensure that the subject's circadian rhythm had returned to a normal cycle. Subject's vital signs, including BP, were monitored during the dosing and testing period. Blood samples for determination of Compound A plasma concentrations were collected at specified timepoints on Days 1 and 2 of each treatment period. Subjects completed the Columbia-Suicide Severity Rating Scale (C-SSRS) during screening, before study drug administration, and before discharge on Day 2 of each treatment period.
Secondary endpoints: • PK parameters calculated from plasma concentrations of Compound A. • Scores for sleepiness on the Karolinska Sleepiness Scale (KSS).
The secondary efficacy endpoint was sleepiness/alertness as assessed by KSS at 14, 10, 6, and 2 hours predose (approximately between 7:45 AM to 7:45 PM); 2, 2.75, 4.75, 6.75, and 8.75 hours post infusion start (approximately between mid-night to 7 AM in the morning); and at 1.75 hours post infusion end. A higher value indicates more sleepiness, a lower value indicates more alertness. Prior to infusion, there were no statistically significant differences at any time point of observation in KSS score for Compound A 44 and 112 mg treatments when compared to placebo. […] On the average, for modafinil and Compound A 44 and 112 mg, there were about 1.6 to 3.7 points increase in the KSS postdose/the infusion start, relative to that prior to dosing during the daytime. However, for placebo, the increase in the average KSS is 4.9.

[1] = DELTA: AVERAGE POST - AVERAGE PRIOR
[2] = Modafinil 300 mg, 1.75 HOURS POST INFUSION END
[3] = Modafinil 300 mg, 2 HOURS PREDOSE
[4] = Modafinil 300 mg, 2.75 HOURS POST INFUSION START
[5] = Modafinil 300 mg, 4.75 HOURS POST INFUSION START
[6] = Modafinil 300 mg, 6 HOURS PREDOSE
[7] = Modafinil 300 mg, 6.75 HOURS POST INFUSION START
[8] = Modafinil 300 mg, 8.75 HOURS POST INFUSION START
[9] = Modafinil 300 mg, 10 HOURS PREDOSE
[10] = Modafinil 300 mg, 14 HOURS PREDOSE

What does the source list for `NC(=O)C[S+]([O-])C(c1ccccc1)c1ccccc1` (stereo not drawn) [Modafinil, modafinil, reference compound]?
KSS Sleepy/Alert LS Mean (1.75 HOURS POST INFUSION END): 7.16; KSS Sleepy/Alert LS Mean Difference vs Placebo Estimate (1.75 HOURS POST INFUSION END): −0.99; KSS Sleepy/Alert LS Mean (2 HOURS PREDOSE): 3.32; KSS Sleepy/Alert LS Mean Difference vs Placebo Estimate (2 HOURS PREDOSE): −0.58; KSS Sleepy/Alert LS Mean (2.75 HOURS POST INFUSION START): 3.69; KSS Sleepy/Alert LS Mean Difference vs Placebo Estimate (2.75 HOURS POST INFUSION START): −3.16; KSS Sleepy/Alert LS Mean (4.75 HOURS POST INFUSION START): 4.32; KSS Sleepy/Alert LS Mean Difference vs Placebo Estimate (4.75 HOURS POST INFUSION START): −3.83; KSS Sleepy/Alert LS Mean (6 HOURS PREDOSE): 2.58; KSS Sleepy/Alert LS Mean Difference vs Placebo Estimate (6 HOURS PREDOSE): −0.22; KSS Sleepy/Alert LS Mean (6.75 HOURS POST INFUSION START): 5.79; KSS Sleepy/Alert LS Mean Difference vs Placebo Estimate (6.75 HOURS POST INFUSION START): −2.71; KSS Sleepy/Alert LS Mean (8.75 HOURS POST INFUSION START): 6.69; KSS Sleepy/Alert LS Mean Difference vs Placebo Estimate (8.75 HOURS POST INFUSION START): −1.65; KSS Sleepy/Alert LS Mean (10 HOURS PREDOSE): 2.32; KSS Sleepy/Alert LS Mean Difference vs Placebo Estimate (10 HOURS PREDOSE): −0.18; KSS Sleepy/Alert LS Mean (14 HOURS PREDOSE): 2.79; KSS Sleepy/Alert LS Mean Difference vs Placebo Estimate (14 HOURS PREDOSE): −0.26; KSS Sleepy/Alert LS Mean (AVERAGE POST INFUSION START (2.75, 4.75, 6.75 AND 8.75 HOURS)): 5.12; KSS Sleepy/Alert LS Mean (AVERAGE PRIOR TO INFUSION START (14, 10, 6, 2 HOURS PREDOSE)): 2.75; KSS Sleepy/Alert LS Mean [1]: 2.37; KSS Sleepy/Alert LS Mean Difference vs Placebo Estimate [1]: −2.53; Difference between average KSS score post and prior to infusion start, LS Mean (SE) (Modafinil 300 mg): 2.37 (0.323); KSS Max [2]: 9; KSS Mean (SD) [2]: 7.2 (1.80); KSS Median [2]: 8.0; KSS Min [2]: 3; KSS Max [3]: 6; KSS Mean (SD) [3]: 3.3 (1.20); KSS Median [3]: 3.0; KSS Min [3]: 1; KSS Max [4]: 6; KSS Mean (SD) [4]: 3.7 (1.63); KSS Median [4]: 4.0; KSS Min [4]: 1; KSS Max [5]: 7; KSS Mean (SD) [5]: 4.3 (1.89); KSS Median [5]: 4.0; KSS Min [5]: 1; KSS Max [6]: 7; KSS Mean (SD) [6]: 2.6 (1.35); KSS Median [6]: 2.0; KSS Min [6]: 1; KSS Max [7]: 8; KSS Mean (SD) [7]: 5.8 (2.12); KSS Median [7]: 6.0; KSS Min [7]: 2; KSS Max [8]: 9; KSS Mean (SD) [8]: 6.7 (1.92); KSS Median [8]: 7.0; KSS Min [8]: 3; KSS Max [9]: 5; KSS Mean (SD) [9]: 2.3 (1.11); KSS Median [9]: 2.0; KSS Min [9]: 1; KSS Max [10]: 5; KSS Mean (SD) [10]: 2.8 (1.08); KSS Median [10]: 3.0; KSS Min [10]: 1; KSS score (Modafinil 300 mg, 1.75 hours post infusion end): 7.16
